Where a name gives a salt, the structure may show the parent alone.

Series [1] is described as follows: Metabolic stability in liver microsomes with NADPH-generating system, LC-MS analysis. The format is in vitro ADME. The settings on record: compound 5 μM, active microsomes 1 mg/ml. How it is done:
Sub-cellular tissue preparations were made according to Gorrod et al. (Xenobiotica 5: 453-462, 1975) by centrifugal separation after mechanical homogenization of tissue. Liver tissue was rinsed in ice-cold 0.1 M Tris-HCl (pH 7.4) buffer to wash excess blood. Tissue was then blotted dry, weighed and chopped coarsely using surgical scissors. The tissue pieces were homogenized in 3 volumes of ice-cold 0.1 M phosphate buffer (pH 7.4).
Tissue homogenates were centrifuged at 9000×g for 20 minutes at 4° C. The resulting supernatant was stored at −80° C. and is designated ‘S9’.
The S9 fraction can be further centrifuged at 100.000×g for 60 minutes (4° C.). The resulting supernatant was carefully aspirated, aliquoted and designated ‘cytosol’. The pellet was re-suspended in 0.1 M phosphate buffer (pH 7.4) in a final volume of 1 ml per 0.5 g original tissue weight and designated ‘microsomes’.
All sub-cellular fractions were aliquoted, immediately frozen in liquid nitrogen and stored at −80° C. until use.
For the samples to be tested, the incubation mixture contained PBS (0.1M), compound (5 μM), microsomes (1 mg/ml) and a NADPH-generating system (0.8 mM glucose-6-phosphate, 0.8 mM magnesium chloride and 0.8 Units of glucose-6-phosphate dehydrogenase). Control samples contained the same material but the microsomes were replaced by heat inactivated (10 minutes at 95 degrees Celsius) microsomes. Recovery of the compounds in the control samples was always 100%.
The mixtures were preincubated for 5 minutes at 37 degrees Celsius. The reaction was started at time point zero (t=0) by addition of 0.8 mM NADP and the samples were incubated for 60 minutes (P60). The reaction was terminated by the addition of 2 volumes of DMSO. Then the samples were centrifuged for 10 minutes at 900×g and the supernatants were stored at room temperature for no longer as 24 hours before analysis. All incubations were performed in duplo. Analysis of the supernatants was performed with LC-MS analysis. Elution of the samples was performed on a Xterra MS C18 (50×4.6 mm, 5 μm, Waters, US). An Alliance 2790 (Supplier: Waters, US) HPLC system was used. Elution was with buffer A (25 mM ammoniumacetate (pH 5.2) in H2O/acetonitrile (95/5)), solvent B being acetonitrile and solvent C methanol at a flow rate of 2.4 ml/min. The gradient employed was increasing the organic phase concentration from 0% over 50% B and 50% C in 5 min up to 100% B in 1 minute in a linear fashion and organic phase concentration was kept stationary for an additional 1.5 minutes. Total injection volume of the samples was 25 μl.
A Quatro triple quadrupole mass spectrometer fitted with and ESP source was used as detector. The source and the desolvation temperature were set at 120 and 350° C. respectively and nitrogen was used as nebuliser and drying gas. Data were acquired in positive scan mode (single ion reaction). Cone voltage was set at 10 V and the dwell time was 1 second.
Metabolic stability was expressed as % metabolism of the compound after 15 or 60 minutes (equation given as example) of incubation in the presence of active microsomes (E(act))
(Microsomes from liver hold many membrane-bound enzymes, among them those of drug oxidation.)

For a further series, the target named is T1, h5-HT4b (Homo sapiens, UniProt Q13639).
T1 construct: expressed in transfected cells; host or cells: HEK 293 (clone 9), membrane preparation
T1 sequence (Q13639 whole entry): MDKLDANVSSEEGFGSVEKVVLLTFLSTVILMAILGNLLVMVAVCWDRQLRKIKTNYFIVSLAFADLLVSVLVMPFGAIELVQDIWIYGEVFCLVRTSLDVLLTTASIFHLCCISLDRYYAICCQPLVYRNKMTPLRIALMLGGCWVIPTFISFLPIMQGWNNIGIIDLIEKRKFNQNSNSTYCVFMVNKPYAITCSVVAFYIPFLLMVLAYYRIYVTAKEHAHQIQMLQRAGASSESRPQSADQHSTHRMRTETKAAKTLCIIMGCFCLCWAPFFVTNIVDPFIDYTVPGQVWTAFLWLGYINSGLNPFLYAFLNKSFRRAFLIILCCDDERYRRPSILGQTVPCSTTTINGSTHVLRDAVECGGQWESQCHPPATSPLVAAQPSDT
Put plainly: 5HT4 antagonism: [3H]GR113808 binding to membranes of h5-HT4b-HEK 293 clone 9 cells. The settings on record: [3H]GR113808 0.1 nM, h5-HT4b-HEK 293 membranes, 30 min at 25° C. How it is done: h5-HT4b-HEK 293 clone 9 cells were cultured in 150 mm Petri dishes and washed twice with cold PBS. The cells were then scraped from the plates and suspended in 50 mM Tris-HCl buffer, pH 7.4 and harvested by centrifugation at 23,500 rpm for 10 minutes. The pellet was resuspended in 5 mM Tris-HCl, pH 7.4 and homogenized with an Ultra Turrax homogenizer. The membranes were collected by centrifugation at 30,000 rpm for 20 min, resuspended in 50 mM Tris-HCl pH 7.4 and stored at −80° C. For the experiment, assay mixtures (0.5 ml) contained 50 μl of the tritiated ligand (5-HT4 antagonist [^3H]GR113808 0.1 nM) and 0.4 ml membrane preparation (15 μg protein/ml). 50 μl of 10% DMSO was added for total binding. 50 μl of 1 μM of (+)-trans-(1-butyl-3-hydroxy4-piperidinyl)methyl 8-amino-7-chloro-2,3-dihydro-1,4-benzodioxin-5-carboxylate (a proprietary 5HT4 agonist of Janssen Pharmaceutica) was added for determination of non-specific binding.
The [^3H]GR113808 assay buffer was 50 mM HEPES-NaOH, pH 7.4. The mixtures were incubated for 30 min at 25° C. The incubation was terminated by filtration over a Unifilter 96 GF/B presoaked in 0.1% polyethylenimine, followed by six washing steps with 50 mM HEPES-NaOH, pH 7.4.

Broadly, the melting point is the temperature of the solid-liquid transition. In turn, `CNCCCCN1CC[C@@H](CNC(=O)c2ccc(C)c3c2OCCCO3)[C@H](O)C1` (as salt: salt) [compound 4] showed a melting point of 120 °C. For `CCCCN1CC[C@@H](CNC(=O)c2cc(Cl)c(Br)c3c2OCCCO3)[C@H](O)C1` [Co. No. 22], the “% metabolised compound” value in series [1] (60 minutes incubation) is 51 (60″) %. As for `O=C(NC[C@@H]1CCN(CCCO)C[C@H]1O)c1cc(Cl)c(Br)c2c1OCCCO2` [Co. No. 24], in series [1] (15 minutes incubation), the “% metabolised compound” value is 4 (15″) %. The same measure, in the same setting: the figure for `O=C(NC[C@@H]1CCN(CCC2OCCO2)C[C@H]1O)c1cc(Cl)c(Cl)c2c1OCCCO2` [Co. No. 88] is 10 (15″) %. Regarding `CCCCN1CC[C@@H](CNC(=O)c2cc(Cl)cc3c2OCCCO3)[C@H](O)C1` [WO-00/37461 Co. No. 119, reference compound], the “% metabolised compound” value in series [1] (60 minutes incubation) is on record as 68 (60″) %. Turning to `O=C(NC[C@@H]1CCN(CCC2OCCO2)C[C@H]1O)c1cc(Cl)cc2c1OCCCO2` [WO-00/37461 Co. No. 143, reference compound], the “% metabolised compound” value in series [1] (15 minutes incubation) was 26.5 (15″) %. For `O=C(NC[C@@H]1CCN(CCCO)C[C@H]1O)c1cc(Cl)cc2c1OCCCO2` [WO-00/37461 Co. No. 144, reference compound], in series [1] (15 minutes incubation), the “% metabolised compound” value is 5 (15″) %.

Usually IC50 stands for the concentration that inhibits the measured activity by half. Read a low IC50 as greater potency in that assay. Compound `CCCCN1CC[C@@H](CNC(=O)c2ccc(C)c3c2OCCCO3)[C@H](O)C1` [compound 1] yielded a melting point of 127 °C. This compound showed an IC50 at h5-HT4b of 1.32 nM. The corresponding values for `COCCCN1CC[C@@H](CNC(=O)c2ccc(C)c3c2OCCCO3)[C@H](O)C1` [compound 2] are 109 °C and 2.75 nM.

Take `CCCCN1CC[C@@H](CNC(=O)c2cc(Cl)c(OC)c3c2OCCO3)[C@H](O)C1` [compound 7]: the melting point amounted to 127 °C. The IC50 at h5-HT4b is 1.74 nM. In the case of `CCCCN1CC[C@@H](CNC(=O)c2cc(Cl)c(Cl)c3c2OCCCO3)[C@H](O)C1` [compound 16], the melting point was determined as 115 °C. This compound gave an IC50 on h5-HT4b of 1.23 nM.

`Cc1ccc(C(=O)NC[C@@H]2CCN(CCCCNS(C)(=O)=O)C[C@H]2O)c2c1OCCCO2` [compound 107] displayed a melting point of 124 °C. On h5-HT4b, the concentration for half-maximal inhibition (IC50) was 2.45 nM. As to `Cc1ccc(C(=O)NC[C@@H]2CCN(CCCC(N)=O)C[C@H]2O)c2c1OCCCO2` [compound 109], the melting point stood at 160 °C. In addition, on h5-HT4b, the IC50 was 1.17 nM.

As for `COc1ccc(C(=O)NC[C@@H]2CCNC[C@H]2O)c2c1OCCO2` [compound 117], the melting point is 160 °C. On h5-HT4b, this compound gave an IC50 of 107 nM. For `COc1ccc(C(=O)NC[C@@H]2CCN(CCCC#N)C[C@H]2O)c2c1OCCO2` [compound 138], the IC50 at h5-HT4b was 6.17 nM. This counts as single-digit nanomolar.

On h5-HT4b, `COc1ccc(C(=O)NC[C@@H]2CCN(CCCC(N)=O)C[C@H]2O)c2c1OCCO2` [compound 139] had an IC50 of 5.89 nM. The IC50 values of the last two compounds are within 1.5-fold of each other. Compound `COc1ccc(C(=O)NC[C@@H]2CCN(CCCC(N)=O)C[C@H]2OC)c2c1OCCO2` [compound 140] came in with a melting point of 180 °C. This compound had an IC50 on h5-HT4b of 33.9 nM.

Turning to `CCCCN1CC[C@H](CNC(=O)c2ccc(OC)c3c2OCCCO3)[C@H](O)C1` [compound 141], the IC50 on h5-HT4b was 214 nM. For `COCCCCN1CC[C@H](CNC(=O)c2ccc(OC)c3c2OCCCO3)[C@H](O)C1` [compound 142], at h5-HT4b, the IC50 is 162 nM.

As for `O=C(NC[C@@H]1CCN(CCCCO)C[C@H]1O)c1ccc(F)c2c1OCCCO2` [compound 143], the IC50 at h5-HT4b is 1.17 nM. `COc1ccc(C(=O)NC[C@H]2CCN(CCCC(N)=O)C[C@H]2O)c2c1OCCCO2` [compound 144] had a concentration for half-maximal inhibition (IC50) on h5-HT4b of 282 nM. `CCOc1ccc(C(=O)NC[C@@H]2CCN(CCCC#N)C[C@H]2O)c2c1OCCCO2` [compound 145] returned a melting point of 131 °C. Also, the IC50 at h5-HT4b is 8.71 nM. With `CCOc1ccc(C(=O)NC[C@@H]2CCN(CCCC(N)=O)C[C@H]2O)c2c1OCCCO2` [compound 146], the IC50 at h5-HT4b was 5.89 nM. Same read-out and setting: the figure for `COc1ccc(C(=O)NCC2(O)CCN(CCCC(N)=O)CC2)c2c1OCCCO2` [compound 147] is 501 nM.

The values are drawn from US7635706B2, “5HT4-antagonistic 4-(aminomethyl)-piperidine benzamides” (Janssen Pharmaceutica NV, priority 2003, dated 2009).
